From ChEMBL document CHEMBL4196002, “Design, synthesis, mechanistic and histopathological studies of small-molecules of novel indole-2-carboxamides and pyrazino[1,2-a]indol-1(2H)-ones as potential anticancer agents effecting the reactive oxygen species production” (Eur J Med Chem, 2018)

Assays:
[1] = test system: MIA PaCa-2; assay: Antiproliferative activity human MIAPaCa2 cells after 48 hrs by propidium iodide staining-based fluorescence assay; type: functional, cell-based; conditions: MIA PaCa-2, 48 h
[2] = test system: PC-3; assay: Antiproliferative activity human PC3 cells after 48 hrs by propidium iodide staining-based fluorescence assay; type: functional, cell-based; conditions: PC-3, 48 h
[3] = Inhibition of ROS generation in human PMN at 12.5 ug/ml after 50 mins by luminol-based chemiluminescence assay relative to control; type: functional
[4] = Antioxidant activity assessed as DPPH radical scavenging activity at 10 uM after 30 mins dark incubation; type: functional
[5] = Inhibition of ROS generation in human PMN at 1.56 ug/ml after 50 mins by luminol-based chemiluminescence assay relative to control; type: functional
[6] = species: Homo sapiens; assay: (§1) Inhibition of ROS generation in human PMN after 50 mins by luminol-based chemiluminescence assay; type: functional
[7] = as §1; type: functional
[8] = Antioxidant activity assessed as DPPH radical scavenging activity at 100 uM after 30 mins dark incubation; type: functional
[9] = Antioxidant activity assessed as DPPH radical scavenging activity at 50 uM after 30 mins dark incubation; type: functional
[10] = test system: HT-29; assay: Antiproliferative activity human HT-29 cells after 48 hrs by propidium iodide staining-based fluorescence assay; type: functional, cell-based; conditions: HT-29, 48 h
[11] = Inhibition of ROS generation in human PMN at 6.25 ug/ml after 50 mins by luminol-based chemiluminescence assay relative to control; type: functional
[12] = test system: MCF7; assay: Antiproliferative activity human MCF7 cells after 48 hrs by propidium iodide staining-based fluorescence assay; type: functional, cell-based; conditions: MCF7, 48 h
[13] = Inhibition of ROS generation in human PMN at 0.78 ug/ml after 50 mins by luminol-based chemiluminescence assay relative to control; type: functional
[14] = test system: A549; assay: Antiproliferative activity human A549 cells after 48 hrs by propidium iodide staining-based fluorescence assay; type: functional, cell-based; conditions: A549, 48 h
[15] = Cytotoxicity against human MCF10A cells assessed as cell viability at 50 uM after 96 hrs by MTT assay relative to control; type: cell-based, MCF-10A; conditions: read-out: Activity
[16] = Inhibition of ROS generation in human PMN at 3.13 ug/ml after 50 mins by luminol-based chemiluminescence assay relative to control; type: functional
[17] = molecular target: Epidermal growth factor receptor (Homo sapiens, UniProt P00533); assay: Inhibition of His6-tagged EGFR (unknown origin) cytoplasmic domain expressed in baculovirus infected Sf9 insect cells after 10 mins followed by addition of ATP-MgCl2 and measured after 1 hr by time-resolved fluorometric analysis
Sequence of Epidermal growth factor receptor (P00533 whole entry, the tested form may be a part): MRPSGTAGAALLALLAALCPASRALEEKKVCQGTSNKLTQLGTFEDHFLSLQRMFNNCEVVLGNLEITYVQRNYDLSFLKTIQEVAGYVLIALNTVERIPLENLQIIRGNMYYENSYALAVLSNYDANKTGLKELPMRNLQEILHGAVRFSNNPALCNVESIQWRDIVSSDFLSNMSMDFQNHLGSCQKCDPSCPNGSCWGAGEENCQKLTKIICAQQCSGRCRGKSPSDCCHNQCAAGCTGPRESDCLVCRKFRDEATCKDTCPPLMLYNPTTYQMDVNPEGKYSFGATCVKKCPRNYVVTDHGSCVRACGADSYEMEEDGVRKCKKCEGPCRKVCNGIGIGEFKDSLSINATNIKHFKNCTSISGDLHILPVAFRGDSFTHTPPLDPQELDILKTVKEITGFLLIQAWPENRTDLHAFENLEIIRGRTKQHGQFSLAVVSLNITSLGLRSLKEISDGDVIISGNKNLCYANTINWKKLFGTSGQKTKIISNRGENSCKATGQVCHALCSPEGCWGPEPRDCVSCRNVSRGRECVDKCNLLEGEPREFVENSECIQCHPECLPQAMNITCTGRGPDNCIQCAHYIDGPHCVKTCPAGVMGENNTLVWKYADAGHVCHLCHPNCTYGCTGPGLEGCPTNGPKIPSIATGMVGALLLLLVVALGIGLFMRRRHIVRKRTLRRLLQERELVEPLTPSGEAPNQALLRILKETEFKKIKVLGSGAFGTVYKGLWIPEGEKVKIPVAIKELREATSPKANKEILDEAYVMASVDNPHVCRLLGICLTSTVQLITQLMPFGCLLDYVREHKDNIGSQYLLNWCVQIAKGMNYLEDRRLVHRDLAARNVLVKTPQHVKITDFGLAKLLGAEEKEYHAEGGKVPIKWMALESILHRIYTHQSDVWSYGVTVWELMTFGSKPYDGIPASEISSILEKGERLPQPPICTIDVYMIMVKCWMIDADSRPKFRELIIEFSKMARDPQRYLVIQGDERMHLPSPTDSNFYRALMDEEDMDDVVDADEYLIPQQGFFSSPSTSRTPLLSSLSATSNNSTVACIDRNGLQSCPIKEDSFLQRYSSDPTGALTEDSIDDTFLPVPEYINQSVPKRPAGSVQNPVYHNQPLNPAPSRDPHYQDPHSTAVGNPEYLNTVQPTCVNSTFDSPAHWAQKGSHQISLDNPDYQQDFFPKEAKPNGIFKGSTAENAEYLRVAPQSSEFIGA

[18] = molecular target: Tubulin (Homo sapiens) (UniProt P68371+Q9H4B7+P0DPH7+P68366+Q13509+Q71U36+P04350+Q3ZCM7+P07437+P68363+Q9BQE3+Q6PEY2+Q13885+Q9BVA1+Q9BUF5); assay: Inhibition of tubulin (unknown origin) polymerization assessed as tubulin assembly rate by fluorescence assay; type: protein-complex assay
[19] = molecular target: Serine/threonine-protein kinase B-raf (Mus musculus, UniProt P28028, V600E); assay: Inhibition of mouse full-length GST-tagged BRAF V600E mutant using recombinant human full length N-terminal His-tagged MEK1 as substrate preincubated for 60 mins followed by substrate addition and measured after 25 mins by ELISA
Sequence of Serine/threonine-protein kinase B-raf (P28028 whole entry, looked up, stated change not applied): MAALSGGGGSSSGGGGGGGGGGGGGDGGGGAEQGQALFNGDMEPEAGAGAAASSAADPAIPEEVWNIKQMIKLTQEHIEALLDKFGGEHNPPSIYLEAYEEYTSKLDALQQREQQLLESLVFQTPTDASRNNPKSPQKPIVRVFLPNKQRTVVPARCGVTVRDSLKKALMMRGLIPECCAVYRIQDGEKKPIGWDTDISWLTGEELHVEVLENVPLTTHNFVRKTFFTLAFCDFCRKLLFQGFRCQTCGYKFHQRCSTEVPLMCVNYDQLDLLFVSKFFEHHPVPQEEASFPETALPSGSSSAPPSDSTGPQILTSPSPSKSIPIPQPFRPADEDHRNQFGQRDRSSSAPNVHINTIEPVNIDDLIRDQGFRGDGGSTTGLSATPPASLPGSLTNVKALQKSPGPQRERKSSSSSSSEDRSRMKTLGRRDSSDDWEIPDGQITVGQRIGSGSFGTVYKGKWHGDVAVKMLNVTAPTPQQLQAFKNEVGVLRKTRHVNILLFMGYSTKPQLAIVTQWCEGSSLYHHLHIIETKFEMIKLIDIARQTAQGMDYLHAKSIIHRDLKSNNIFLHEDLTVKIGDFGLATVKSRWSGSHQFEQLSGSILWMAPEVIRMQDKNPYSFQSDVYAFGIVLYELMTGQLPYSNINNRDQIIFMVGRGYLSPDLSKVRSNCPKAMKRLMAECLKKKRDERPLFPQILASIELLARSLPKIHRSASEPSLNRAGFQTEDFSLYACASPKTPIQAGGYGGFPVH

Structure (SMILES) | IC50 [1] [µM] | IC50 [2] [µM] | inhibition at 12.5 µg/mL [3] [%] | Activity [4] [%] | inhibition at 1.56 µg/mL [5] [%] | inhibition [6] | IC50 [7] [µM] | Activity [8] [%] | Activity [9] [%] | IC50 [10] [µM] | inhibition at 6.25 µg/mL [11] [%] | IC50 [12] [µM] | inhibition at 0.78 µg/mL [13] [%] | IC50 [14] [µM] | viability at 96 h, 50 µM [15] [%] | inhibition at 3.13 µg/mL [16] [%] | IC50 [17] [µM] | Activity [18] [a.u.] | IC50 [19] [µM]
CCc1c2cc(Br)ccc2n2cc(Cc3ccccc3)[nH]c(=O)c12 | 4.6 | 3.4 | 70 | 54.5 | 44 | Dose-dependent effect | 6.44 | 82.4 | 73.9 | 4.8 | 61 | 3.6 | 25 | 4.5 | 82 | 52 | – | – | –
O=C(NC(CO)Cc1ccccc1)c1cc2ccccc2[nH]1 (stereo not drawn) | 18.6 | 16.5 | 64 | 24.8 | 21 | Dose-dependent effect | 23.1 | 64.6 | 50.1 | 16.9 | 47 | 16.4 | 9 | 15.4 | 96 | 32 | – | – | –
CCc1c2cc(C(F)(F)F)ccc2n2cc(Cc3ccccc3)[nH]c(=O)c12 | 1.1 | 1 | 89 | 52.2 | 42 | Dose-dependent effect | 6.53 | 84.4 | 72.9 | 0.9 | 72 | 0.9 | 31 | 1.4 | 79 | 56 | 3.9 | 1920 | 0.9
O=c1[nH]c(Cc2ccccc2)cn2c1cc1ccccc12 | 13.8 | 13.4 | 68 | 29.3 | 27 | Dose-dependent effect | 19 | 65.9 | 52.4 | 13.8 | 51 | 13.6 | 14 | 14.7 | 92 | 40 | – | – | –
Cc1c(C(=O)NC(CO)Cc2ccccc2)[nH]c2ccc(Cl)cc12 (stereo not drawn) | 2.6 | 2.5 | 74 | 55.4 | 45 | Dose-dependent effect | 5.91 | 86.4 | 72.7 | 2.9 | 65 | 2.8 | 39 | 2.9 | 90 | 58 | 0.5 | 2570 | 3.7
CCc1c(C(=O)NC(CO)Cc2ccccc2)[nH]c2ccc(Cl)cc12 (stereo not drawn) | 12.5 | 8.9 | 68 | 39.9 | 31 | Dose-dependent effect | 13 | 70.2 | 58.7 | 12.2 | 55 | 12.9 | 20 | 11.4 | 87 | 42 | – | – | –
CCc1c2cc(Cl)ccc2n2cc(Cc3ccccc3)[nH]c(=O)c12 | 8.3 | 5.1 | 72 | 40.8 | 27 | Dose-dependent effect | 13.8 | 71.6 | 59 | 7.7 | 60 | 7.5 | 14 | 6 | 89 | 37 | – | – | –
